Results: patent US20260027066A1, “NANOSCALE MATRIMERES” (THE BOARD OF TRUSTEES OF THE UNIVERSITY OF ILLINOIS, priority 2022, published 2026)

Columns and labels:
[1] = test system: FN^+ matrimeres secreted from MSCs; assay: Effects of pharmacological modulators on FN+ matrimere secretion from MSCs; type: cell-based, mouse; settings: 24 hours in culture with drug vs DMSO control
Description: FIGS. 6A-6C show the effects of pharmacological modulators on FN^+ matrimere secretion. (FIG. 6A) Overview of the potential biogenesis pathway for FN^+ matrimeres, known regulators, and their pharmacological modulators. (FIG. 6B) Total number of nanostructures per MSC after 24 hours in culture with drugs or DMSO control. (FIG. 6C) Percent of FN^+ particles in MSC-secreted nanostructures. (FIG. 6D) Total number of FN^+ particles per cell. *p<0.05. n=3 experiments. p-values from one-way ANOVA followed by Tukey's post-test. All data are shown as mean±s.d. BMS-P5 (CAS No. 1550371-22-6); Bafilomycin-A1 (BafA1, CAS No. 88899-55-2); curcumin analog C1 (CA-C1, CAS No. 39777-61-2); ML-SA5 (CAS No. 2418670-70-7).
For excess DNA to be released from the nucleus, arginine in histone undergoes modification from positive to neutral charge via citrullination, which is mediated by peptidylarginine deiminase (PAD) (FIG. 6A). […] Most cells (>90%) remained viable after drug treatment. Thus, autophagy and lysosome are potential mediators of FN^+ matrimere biogenesis.

[2] = test system: human umbilical vein endothelial cell (HUVEC) monolayer; assay: Transendothelial electrical resistance (TEER) assay of endothelial monolayer after LPS treatment; type: cell-based; settings: cilengitide 200 nM
Description: (FIG. 3A) TEER kinetics of the human umbilical vein endothelial cell (HUVEC) monolayer showing the rescue of LPS (1 μM)—compromised TEER by the CD63-depleted fraction of MSC-secreted nanostructures. (FIG. 3B) Changes in TEER from 6.5 hours to 24 hours after washing out LPS followed by treatment. ****p<0.0001. n=3 experiments. p-values were derived from one-way ANOVA followed by Dunnett's T3 post-test. All data are shown as mean±s.d.
FIG. 8A-8B show the effects of reconstituted FN-DNA matrimeres on the recovery of TEER after 6 hours LPS (1 μM) treatment in vitro. (FIG. 8A) TEER kinetics. (FIG. 8B) Percentage of TEER recovery. n=3 experiments.
The effect of depleting different mouse MSC-secreted nanostructure subpopulations on their ability to reverse hyperpermeability of the endothelial cell monolayer after LPS treatment in vitro was assessed by a transendothelial electrical resistance (TEER) assay. TEER was decreased with LPS over 6 hours, while TEER was only partially rescued after washing out LPS in 24 hours. […] Competitive inhibition of RGD-binding integrins by cilengitide (cyclic RGD, 200 nM) impaired the ability of CD63-depleted fraction to restore TEER (FIG. 3B). […]
It was subsequently determined whether in vitro reconstituted FN-DNA particles could restore permeability of the endothelial cell monolayer after LPS treatment. […]

Row | Structure (SMILES) | FN^+ particle number per cell [1] | FN^+ matrimeres secreted from MSCs [1] | also measured
1 | CN(C)S(=O)(=O)c1ccc(S(=O)(=O)Nc2cccc(Cl)c2N2CCCCC2)cc1 [ML-SA5, N′-[3-Chloro-2-(1-piperidinyl)phenyl]-N,N-dimethyl-1,4-benzenedisulfonamide] | significantly increased | – | –
2 | CC(C)[C@H]1C(=O)N[C@@H](CCCN=C(N)N)C(=O)NCC(=O)N[C@@H](CC(=O)O)C(=O)N[C@H](Cc2ccccc2)C(=O)N1C [cilengitide] | – | – | effect on ability of reconstituted FN-DNA particles to restore TEER [2]: partially impaired; effect on ability of CD63-depleted fraction to restore TEER ([2]; competitive inhibition of RGD-binding integrins): impaired
3 | COc1cc(C(=O)N2C[C@H](N)CC[C@@H]2C)cc2nc(-c3cc4cccnc4n3CC3CC3)n(C)c12 [BMS-P5] | – | decreased | –
4 | COc1ccccc1/C=C/C(=O)/C=C/c1ccccc1OC [curcumin analog C1, (1E,4E)-1,5-bis(2-methoxyphenyl)-1,4-pentadien-3-one] | significantly increased | – | –
5 | CO/C1=C\C(C)=C\[C@@H](C)[C@@H](O)[C@@H](C)C/C(C)=C/C=C/[C@H](OC)[C@@H]([C@@H](C)[C@@H](O)[C@H](C)[C@@]2(O)C[C@@H](O)[C@H](C)[C@@H](C(C)C)O2)OC1=O [bafilomycin-A1] | – | decreased | –
